Reference: article PMC7407272, “Induction of Lysosome Membrane Permeabilization as a Therapeutic Strategy to Target Pancreatic Cancer Stem Cells” (Cancers, 2020)

How the values were obtained:
Assay in all cases: KINOMEscan
Type in all cases: binding
Conditions in all cases: read-out: % Ctrl
[1] = biological target: T1, LATS2 (Homo sapiens, UniProt Q9NRM7)
T1 construct: purchased DiscoveRx KINOMEscan

[2] = biological target: T2, PFTAIRE2 (Homo sapiens, UniProt Q96Q40)
T2 construct: purchased DiscoveRx KINOMEscan

[3] = biological target: T3, CLK1 (Homo sapiens, UniProt P49759)
T3 construct: purchased DiscoveRx KINOMEscan

[4] = biological target: T4, SRMS (Homo sapiens, UniProt Q9H3Y6)
T4 construct: purchased DiscoveRx KINOMEscan

[5] = biological target: T5, TGFBR2 (Homo sapiens, UniProt P37173)
T5 construct: purchased DiscoveRx KINOMEscan

[6] = biological target: T6, ALK(L1196M) (Homo sapiens, UniProt Q9UM73, L1196M)
T6 construct: purchased DiscoveRx KINOMEscan

[7] = biological target: T7, TNIK (Homo sapiens, UniProt Q9UKE5)
T7 construct: purchased DiscoveRx KINOMEscan

[8] = biological target: T8, CDKL2 (Homo sapiens, UniProt Q92772)
T8 construct: purchased DiscoveRx KINOMEscan

[9] = biological target: T9, PHKG1 (Homo sapiens, UniProt Q16816)
T9 construct: purchased DiscoveRx KINOMEscan

[10] = biological target: T10, MST1R (Homo sapiens, UniProt Q04912)
T10 construct: purchased DiscoveRx KINOMEscan

[11] = biological target: T11, RPS6KA4(KD2-C-t.) (Homo sapiens, UniProt O75676)
T11 construct: RPS6KA4(KD2-C-t.); purchased DiscoveRx KINOMEscan

[12] = biological target: T12, p38-beta (Homo sapiens, UniProt Q15759)
T12 construct: purchased DiscoveRx KINOMEscan

[13] = biological target: T13, LYN (Homo sapiens, UniProt P07948)
T13 construct: purchased DiscoveRx KINOMEscan

[14] = biological target: T14, STK16 (Homo sapiens, UniProt O75716)
T14 construct: purchased DiscoveRx KINOMEscan

[15] = biological target: T15, PRKCD (Homo sapiens, UniProt Q05655)
T15 construct: purchased DiscoveRx KINOMEscan

[16] = biological target: T16, RSK1(KD2-C-t.) (Homo sapiens, UniProt Q15418)
T16 construct: RSK1(KD2-C-t.); purchased DiscoveRx KINOMEscan

[17] = biological target: T17, MAP3K4 (Homo sapiens, UniProt Q9Y6R4)
T17 construct: purchased DiscoveRx KINOMEscan

[18] = biological target: T18, GSK3B (Homo sapiens, UniProt P49841)
T18 construct: purchased DiscoveRx KINOMEscan

[19] = biological target: T19, NEK7 (Homo sapiens, UniProt Q8TDX7)
T19 construct: purchased DiscoveRx KINOMEscan

[20] = biological target: T20, NEK10 (Homo sapiens, UniProt Q6ZWH5)
T20 construct: purchased DiscoveRx KINOMEscan

[21] = biological target: T21, RET (Homo sapiens, UniProt P07949)
T21 construct: purchased DiscoveRx KINOMEscan

[22] = biological target: T22, EGFR(L858R,T790M) (Homo sapiens, UniProt P00533, L858R/T790M)
T22 construct: purchased DiscoveRx KINOMEscan

[23] = biological target: T23, MAPKAPK2 (Homo sapiens, UniProt P49137)
T23 construct: purchased DiscoveRx KINOMEscan

[24] = biological target: T24, S6K1 (Homo sapiens, UniProt P23443)
T24 construct: purchased DiscoveRx KINOMEscan

[25] = biological target: T25, ZAP70 (Homo sapiens, UniProt P43403)
T25 construct: purchased DiscoveRx KINOMEscan

[26] = biological target: T26, SNRK (Homo sapiens, UniProt Q9NRH2)
T26 construct: purchased DiscoveRx KINOMEscan

[27] = biological target: T27, WEE2 (Homo sapiens, UniProt P0C1S8)
T27 construct: purchased DiscoveRx KINOMEscan

[28] = biological target: T28, FER (Homo sapiens, UniProt P16591)
T28 construct: purchased DiscoveRx KINOMEscan

[29] = biological target: T29, ABL1(M351T)-P (Homo sapiens, UniProt P00519, M351T)
T29 construct: purchased DiscoveRx KINOMEscan

[30] = biological target: T30, PAK7 (Homo sapiens, UniProt Q9P286)
T30 construct: purchased DiscoveRx KINOMEscan

[31] = biological target: T31, ABL1(T315I)-P (Homo sapiens, UniProt P00519, T315I)
T31 construct: purchased DiscoveRx KINOMEscan

[32] = biological target: T32, MERTK (Homo sapiens, UniProt Q12866)
T32 construct: purchased DiscoveRx KINOMEscan

[33] = biological target: T33, ERK4 (Homo sapiens, UniProt P31152)
T33 construct: purchased DiscoveRx KINOMEscan

[34] = biological target: T34, ACVR1B (Homo sapiens, UniProt P36896)
T34 construct: purchased DiscoveRx KINOMEscan

[35] = biological target: T35, ABL1(H396P)-P (Homo sapiens, UniProt P00519, H396P)
T35 construct: purchased DiscoveRx KINOMEscan

[36] = biological target: T36, FLT3(R834Q) (Homo sapiens, UniProt P36888, R834Q)
T36 construct: purchased DiscoveRx KINOMEscan

[37] = biological target: T37, CIT (Homo sapiens, UniProt O14578)
T37 construct: purchased DiscoveRx KINOMEscan

[38] = biological target: T38, ERBB3 (Homo sapiens, UniProt P21860)
T38 construct: purchased DiscoveRx KINOMEscan

[39] = biological target: T39, NDR1 (Homo sapiens, UniProt Q15208)
T39 construct: purchased DiscoveRx KINOMEscan

[40] = biological target: T40, PRKX (Homo sapiens, UniProt P51817)
T40 construct: purchased DiscoveRx KINOMEscan

[41] = biological target: T41, MYLK4 (Homo sapiens, UniProt Q86YV6)
T41 construct: purchased DiscoveRx KINOMEscan

[42] = biological target: T42, CLK3 (Homo sapiens, UniProt P49761)
T42 construct: purchased DiscoveRx KINOMEscan

[43] = biological target: T43, PIK3CA (Homo sapiens, UniProt P42336)
T43 construct: purchased DiscoveRx KINOMEscan
T43 sequence (P42336 whole entry): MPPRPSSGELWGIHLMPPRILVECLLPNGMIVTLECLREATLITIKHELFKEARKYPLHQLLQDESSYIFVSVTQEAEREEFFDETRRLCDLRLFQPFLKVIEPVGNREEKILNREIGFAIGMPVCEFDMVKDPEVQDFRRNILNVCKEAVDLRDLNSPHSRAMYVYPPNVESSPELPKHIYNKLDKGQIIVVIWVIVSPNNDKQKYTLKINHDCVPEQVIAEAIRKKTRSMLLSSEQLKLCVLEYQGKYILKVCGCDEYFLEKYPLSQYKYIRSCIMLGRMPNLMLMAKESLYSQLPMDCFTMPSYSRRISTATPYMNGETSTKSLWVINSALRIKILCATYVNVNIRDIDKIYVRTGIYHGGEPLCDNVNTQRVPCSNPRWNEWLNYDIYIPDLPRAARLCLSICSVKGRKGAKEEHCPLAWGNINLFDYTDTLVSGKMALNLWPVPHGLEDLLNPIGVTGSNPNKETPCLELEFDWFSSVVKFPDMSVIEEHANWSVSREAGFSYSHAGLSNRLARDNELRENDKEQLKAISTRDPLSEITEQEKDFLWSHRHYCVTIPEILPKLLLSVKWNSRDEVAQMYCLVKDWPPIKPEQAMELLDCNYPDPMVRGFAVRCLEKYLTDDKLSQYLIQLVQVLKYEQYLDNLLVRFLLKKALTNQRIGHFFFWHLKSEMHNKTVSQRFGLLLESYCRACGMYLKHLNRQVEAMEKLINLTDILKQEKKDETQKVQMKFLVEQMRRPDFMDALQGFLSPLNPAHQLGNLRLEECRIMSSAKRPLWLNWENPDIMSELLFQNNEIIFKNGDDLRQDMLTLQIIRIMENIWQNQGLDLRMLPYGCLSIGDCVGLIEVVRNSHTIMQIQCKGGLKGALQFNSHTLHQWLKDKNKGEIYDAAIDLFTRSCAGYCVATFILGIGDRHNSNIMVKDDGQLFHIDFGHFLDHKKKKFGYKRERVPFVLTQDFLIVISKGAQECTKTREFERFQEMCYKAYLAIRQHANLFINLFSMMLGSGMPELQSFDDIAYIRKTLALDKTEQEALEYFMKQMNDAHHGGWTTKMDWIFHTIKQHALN

T18 sequence (P49841 whole entry): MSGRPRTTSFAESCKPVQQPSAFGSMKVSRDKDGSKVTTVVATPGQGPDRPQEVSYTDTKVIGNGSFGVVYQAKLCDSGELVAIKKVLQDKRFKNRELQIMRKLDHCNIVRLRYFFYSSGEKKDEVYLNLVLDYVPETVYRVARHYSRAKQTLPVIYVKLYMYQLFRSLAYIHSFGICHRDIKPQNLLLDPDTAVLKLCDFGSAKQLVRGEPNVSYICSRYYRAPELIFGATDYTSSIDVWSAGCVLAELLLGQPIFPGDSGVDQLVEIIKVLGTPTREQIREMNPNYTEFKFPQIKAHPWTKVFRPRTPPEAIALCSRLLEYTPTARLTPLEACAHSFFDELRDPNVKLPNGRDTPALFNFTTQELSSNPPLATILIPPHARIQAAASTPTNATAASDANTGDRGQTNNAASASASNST
T12 sequence (Q15759 whole entry): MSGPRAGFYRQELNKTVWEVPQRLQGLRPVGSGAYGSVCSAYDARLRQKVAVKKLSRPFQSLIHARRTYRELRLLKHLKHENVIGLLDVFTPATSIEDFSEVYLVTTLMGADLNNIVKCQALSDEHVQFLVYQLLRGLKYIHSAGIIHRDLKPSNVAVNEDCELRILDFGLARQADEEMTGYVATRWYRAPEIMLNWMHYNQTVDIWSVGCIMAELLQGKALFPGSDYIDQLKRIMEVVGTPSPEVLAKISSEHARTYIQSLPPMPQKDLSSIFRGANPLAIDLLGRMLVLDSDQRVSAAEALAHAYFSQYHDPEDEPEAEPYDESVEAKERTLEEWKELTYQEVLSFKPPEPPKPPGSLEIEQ
T27 sequence (P0C1S8 whole entry): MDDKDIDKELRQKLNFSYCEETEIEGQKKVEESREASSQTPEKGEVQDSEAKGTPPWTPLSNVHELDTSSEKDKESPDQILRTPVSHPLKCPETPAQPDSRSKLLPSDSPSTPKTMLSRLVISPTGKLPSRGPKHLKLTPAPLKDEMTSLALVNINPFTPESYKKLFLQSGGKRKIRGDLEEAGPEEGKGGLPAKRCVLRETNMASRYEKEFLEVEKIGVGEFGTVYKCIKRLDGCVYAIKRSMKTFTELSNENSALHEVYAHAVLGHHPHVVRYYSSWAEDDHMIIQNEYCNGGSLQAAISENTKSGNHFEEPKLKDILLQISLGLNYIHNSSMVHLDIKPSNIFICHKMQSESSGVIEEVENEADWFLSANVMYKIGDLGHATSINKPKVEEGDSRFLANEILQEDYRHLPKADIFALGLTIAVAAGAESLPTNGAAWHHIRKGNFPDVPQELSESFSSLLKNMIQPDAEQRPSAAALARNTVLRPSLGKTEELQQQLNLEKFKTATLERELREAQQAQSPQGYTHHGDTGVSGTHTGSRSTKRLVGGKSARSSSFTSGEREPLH
T2 sequence (Q96Q40 whole entry): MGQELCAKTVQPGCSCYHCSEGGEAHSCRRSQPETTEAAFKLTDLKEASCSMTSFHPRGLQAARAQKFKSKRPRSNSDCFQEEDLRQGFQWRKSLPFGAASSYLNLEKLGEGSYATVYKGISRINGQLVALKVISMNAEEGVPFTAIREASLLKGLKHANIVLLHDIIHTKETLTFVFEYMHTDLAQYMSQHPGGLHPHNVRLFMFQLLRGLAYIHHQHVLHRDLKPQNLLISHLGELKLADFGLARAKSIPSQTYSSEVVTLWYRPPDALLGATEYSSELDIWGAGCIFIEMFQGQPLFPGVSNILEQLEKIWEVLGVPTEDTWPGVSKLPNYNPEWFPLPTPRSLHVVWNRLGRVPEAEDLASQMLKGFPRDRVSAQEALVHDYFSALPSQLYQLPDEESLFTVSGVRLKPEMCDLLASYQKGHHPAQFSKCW
T21 sequence (P07949 29-1114): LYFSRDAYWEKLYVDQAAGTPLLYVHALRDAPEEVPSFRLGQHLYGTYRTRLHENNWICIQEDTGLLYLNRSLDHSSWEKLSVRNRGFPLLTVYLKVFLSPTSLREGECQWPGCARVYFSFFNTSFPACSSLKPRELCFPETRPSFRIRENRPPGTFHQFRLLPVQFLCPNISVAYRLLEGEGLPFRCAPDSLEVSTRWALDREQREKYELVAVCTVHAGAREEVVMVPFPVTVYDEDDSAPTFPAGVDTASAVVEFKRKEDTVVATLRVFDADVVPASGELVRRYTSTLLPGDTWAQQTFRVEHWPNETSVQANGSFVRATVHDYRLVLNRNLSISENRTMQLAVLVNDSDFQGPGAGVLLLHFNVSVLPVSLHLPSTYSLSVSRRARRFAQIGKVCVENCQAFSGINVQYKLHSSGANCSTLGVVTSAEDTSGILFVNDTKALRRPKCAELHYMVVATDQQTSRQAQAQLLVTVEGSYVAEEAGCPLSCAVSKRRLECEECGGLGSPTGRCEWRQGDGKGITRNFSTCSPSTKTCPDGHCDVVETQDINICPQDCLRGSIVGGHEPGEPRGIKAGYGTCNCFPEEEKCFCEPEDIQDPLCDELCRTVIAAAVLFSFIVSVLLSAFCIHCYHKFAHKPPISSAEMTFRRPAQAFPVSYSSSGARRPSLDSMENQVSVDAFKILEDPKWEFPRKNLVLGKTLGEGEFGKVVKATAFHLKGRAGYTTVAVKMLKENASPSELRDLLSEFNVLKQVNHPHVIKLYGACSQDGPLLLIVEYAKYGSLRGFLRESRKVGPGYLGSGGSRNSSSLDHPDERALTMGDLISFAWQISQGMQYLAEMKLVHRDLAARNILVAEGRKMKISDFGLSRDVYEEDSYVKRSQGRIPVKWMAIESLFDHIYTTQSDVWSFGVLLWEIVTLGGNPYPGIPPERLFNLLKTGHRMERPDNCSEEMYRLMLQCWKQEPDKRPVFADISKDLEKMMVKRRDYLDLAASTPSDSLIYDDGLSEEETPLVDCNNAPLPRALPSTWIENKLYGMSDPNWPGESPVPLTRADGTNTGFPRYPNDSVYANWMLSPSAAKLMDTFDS
T1 sequence (Q9NRM7 whole entry): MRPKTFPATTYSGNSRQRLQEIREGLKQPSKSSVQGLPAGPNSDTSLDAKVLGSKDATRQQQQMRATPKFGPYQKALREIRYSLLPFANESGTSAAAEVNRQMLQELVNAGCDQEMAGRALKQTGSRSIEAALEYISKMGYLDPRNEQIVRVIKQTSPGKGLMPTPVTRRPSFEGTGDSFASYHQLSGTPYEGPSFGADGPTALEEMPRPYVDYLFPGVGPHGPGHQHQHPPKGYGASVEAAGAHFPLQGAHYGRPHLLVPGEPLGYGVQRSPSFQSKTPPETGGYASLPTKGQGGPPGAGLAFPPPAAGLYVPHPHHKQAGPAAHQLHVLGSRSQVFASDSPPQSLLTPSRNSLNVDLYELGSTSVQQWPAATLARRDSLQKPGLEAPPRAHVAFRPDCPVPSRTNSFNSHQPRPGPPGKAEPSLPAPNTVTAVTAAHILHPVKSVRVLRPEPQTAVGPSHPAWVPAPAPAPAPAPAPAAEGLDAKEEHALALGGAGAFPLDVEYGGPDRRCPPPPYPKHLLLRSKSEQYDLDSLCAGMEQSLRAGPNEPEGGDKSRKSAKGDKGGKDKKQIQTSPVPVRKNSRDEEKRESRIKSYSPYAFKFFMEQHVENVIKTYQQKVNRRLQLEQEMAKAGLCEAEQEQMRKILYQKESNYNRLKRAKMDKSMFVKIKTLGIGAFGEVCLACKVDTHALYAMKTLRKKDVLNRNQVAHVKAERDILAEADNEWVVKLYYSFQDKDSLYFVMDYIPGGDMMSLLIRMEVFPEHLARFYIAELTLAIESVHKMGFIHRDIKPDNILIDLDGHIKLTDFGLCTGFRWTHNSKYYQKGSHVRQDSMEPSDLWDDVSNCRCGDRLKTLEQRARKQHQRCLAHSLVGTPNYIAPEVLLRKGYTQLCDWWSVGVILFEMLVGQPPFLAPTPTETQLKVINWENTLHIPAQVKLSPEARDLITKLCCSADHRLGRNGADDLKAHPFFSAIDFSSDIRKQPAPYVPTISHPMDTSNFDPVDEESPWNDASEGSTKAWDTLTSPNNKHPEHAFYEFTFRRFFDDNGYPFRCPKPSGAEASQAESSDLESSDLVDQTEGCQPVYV

Question: With `CN1CCC(CNc2ccc3ncc(C(=O)Nc4cccc(OC(F)(F)F)c4)n3n2)CC1` [Cpd 2] as the molecule, how does the remaining binding at 1 µM [1] read?
Answer: 99%

Question: And the remaining binding at 1 µM [2]?
Answer: 92%

Question: What about the remaining binding at 1 µM [3] of the same molecule?
Answer: 100%

Question: What about the remaining binding at 1 µM [4] of the same molecule?
Answer: 87%

Question: What about the remaining binding at 1 µM [5] of the same molecule?
Answer: 100%

Question: What about the remaining binding at 1 µM [6] of the same molecule?
Answer: 100%

Question: And the remaining binding at 1 µM [7]?
Answer: 81%

Question: What about the remaining binding at 1 µM [8] of the same molecule?
Answer: 98%

Question: What about the remaining binding at 1 µM [9] of the same molecule?
Answer: 100%

Question: And the remaining binding at 1 µM [10]?
Answer: 100%

Question: And the remaining binding at 1 µM [11]?
Answer: 100%

Question: And the remaining binding at 1 µM [12]?
Answer: 100%

Question: And the remaining binding at 1 µM [13]?
Answer: 98%

Question: And the remaining binding at 1 µM [14]?
Answer: 96%

Question: And the remaining binding at 1 µM [15]?
Answer: 80%

Question: What about the remaining binding at 1 µM [16] of the same molecule?
Answer: 89%

Question: What about the remaining binding at 1 µM [17] of the same molecule?
Answer: 86%

Question: And the remaining binding at 1 µM [18]?
Answer: 97%

Question: And the remaining binding at 1 µM [19]?
Answer: 92%

Question: What about the remaining binding at 1 µM [20] of the same molecule?
Answer: 85%

Question: What about the remaining binding at 1 µM [21] of the same molecule?
Answer: 88%

Question: What about the remaining binding at 1 µM [22] of the same molecule?
Answer: 100%

Question: What about the remaining binding at 1 µM [23] of the same molecule?
Answer: 94%

Question: And the remaining binding at 1 µM [24]?
Answer: 93%

Question: What about the remaining binding at 1 µM [25] of the same molecule?
Answer: 95%

Question: And the remaining binding at 1 µM [26]?
Answer: 98%

Question: What about the remaining binding at 1 µM [27] of the same molecule?
Answer: 92%

Question: What about the remaining binding at 1 µM [28] of the same molecule?
Answer: 98%

Question: And the remaining binding at 1 µM [29]?
Answer: 100%

Question: And the remaining binding at 1 µM [30]?
Answer: 90%

Question: What about the remaining binding at 1 µM [31] of the same molecule?
Answer: 100%

Question: What about the remaining binding at 1 µM [32] of the same molecule?
Answer: 88%

Question: And the remaining binding at 1 µM [33]?
Answer: 100%

Question: What about the remaining binding at 1 µM [34] of the same molecule?
Answer: 97%

Question: And the remaining binding at 1 µM [35]?
Answer: 100%

Question: And the remaining binding at 1 µM [36]?
Answer: 100%

Question: What about the remaining binding at 1 µM [37] of the same molecule?
Answer: 60%

Question: What about the remaining binding at 1 µM [38] of the same molecule?
Answer: 100%

Question: What about the remaining binding at 1 µM [39] of the same molecule?
Answer: 89%

Question: What about the remaining binding at 1 µM [40] of the same molecule?
Answer: 100%

Question: What about the remaining binding at 1 µM [41] of the same molecule?
Answer: 100%

Question: And the remaining binding at 1 µM [42]?
Answer: 93%

Question: And the remaining binding at 1 µM [43]?
Answer: 100%
